Bounds are passed on as bounds.

The record followed here is ChEMBL document CHEMBL4052688, “Design, synthesis and biological evaluation of novel 3H-imidazole [4,5-b] pyridine derivatives as selective mTOR inhibitors” (Bioorg Med Chem Lett, 2017).

In test [1] the target is Serine/threonine-protein kinase mTOR (Homo sapiens, UniProt P42345). The test is described as follows: Inhibition of mTOR (unknown origin) by Kinase-Glo plus luminescence kinase assay or and ADP-Glo Plus luminescence kinase assay.
Another test concerns A2780. The test is described as follows: cells. To be noted: Homo sapiens, A2780, 72 h.
A further test relates to MCF7. The test is described as follows: cells. Conditions: Homo sapiens, MCF7, 72 h.
For test [2], the target named is Phosphatidylinositol 4,5-bisphosphate 3-kinase catalytic subunit alpha isoform (Homo sapiens, UniProt P42336). The experiment in a line: Inhibition of PI3Kalpha (unknown origin) using lipid substrate by Kinase-Glo plus luminescence kinase assay or and ADP-Glo Plus luminescence kinase assay. For orientation: Kinase-Glo reads ATP consumption through a luciferase reaction.
Sequence of Phosphatidylinositol 4,5-bisphosphate 3-kinase catalytic subunit alpha isoform (P42336 whole entry, canonical isoform): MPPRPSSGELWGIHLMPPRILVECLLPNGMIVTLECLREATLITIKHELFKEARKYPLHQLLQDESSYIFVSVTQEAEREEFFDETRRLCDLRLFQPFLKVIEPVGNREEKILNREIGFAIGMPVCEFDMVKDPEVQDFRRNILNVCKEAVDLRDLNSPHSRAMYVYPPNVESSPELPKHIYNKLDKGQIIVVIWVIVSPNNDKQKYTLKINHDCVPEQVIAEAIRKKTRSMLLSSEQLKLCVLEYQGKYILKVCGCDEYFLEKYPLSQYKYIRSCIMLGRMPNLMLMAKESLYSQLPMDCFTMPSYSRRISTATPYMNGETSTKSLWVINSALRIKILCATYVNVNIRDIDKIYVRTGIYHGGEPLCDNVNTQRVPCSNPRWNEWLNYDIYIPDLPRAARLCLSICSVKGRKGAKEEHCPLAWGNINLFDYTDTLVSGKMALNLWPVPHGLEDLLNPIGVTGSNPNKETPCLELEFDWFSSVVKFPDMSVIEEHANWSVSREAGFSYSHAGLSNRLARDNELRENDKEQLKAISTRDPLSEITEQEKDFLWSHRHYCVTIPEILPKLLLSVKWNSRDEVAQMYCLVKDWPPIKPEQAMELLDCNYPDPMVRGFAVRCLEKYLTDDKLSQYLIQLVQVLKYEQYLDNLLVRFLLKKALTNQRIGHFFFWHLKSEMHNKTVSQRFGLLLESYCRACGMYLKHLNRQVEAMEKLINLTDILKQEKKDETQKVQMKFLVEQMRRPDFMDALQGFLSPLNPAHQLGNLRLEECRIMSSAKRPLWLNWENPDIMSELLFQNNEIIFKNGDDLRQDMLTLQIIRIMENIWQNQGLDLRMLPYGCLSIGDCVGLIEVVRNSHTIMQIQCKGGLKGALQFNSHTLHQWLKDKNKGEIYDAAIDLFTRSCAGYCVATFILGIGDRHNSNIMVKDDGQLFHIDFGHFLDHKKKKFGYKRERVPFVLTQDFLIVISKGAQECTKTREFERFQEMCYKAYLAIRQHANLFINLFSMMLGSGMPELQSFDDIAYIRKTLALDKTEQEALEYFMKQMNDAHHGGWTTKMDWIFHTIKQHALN

Description for A2780: Antiproliferative activity against human A2780 cells incubated for 72 hrs by MTT assay
Description for MCF7: Antiproliferative activity against human MCF7 cells incubated for 72 hrs by MTT assay

On to `CCNC(=O)Nc1ccc(-c2nc3c(c(N4CCOC[C@@H]4C)n2)CCN(C2COC2)C3)cc1` [RG-7603], for which the IC50 came to 39 nM in test [1], 330 nM in the test with A2780, 5.8 nM with MCF7 and 4200 nM in test [2].

For `CCCn1cnc2c(N3CCOC[C@@H]3C)cc(-c3ccc(NC(=O)NCC)cc3)nc21`, the IC50 in test [1] was 290 nM; in the test on A2780, 3110 nM; with MCF7, 64 nM; in test [2], above 10000 nM.

On to `CCNC(=O)Nc1ccc(-c2cc(N3CCOC[C@@H]3C)c3nc(C)n(CC)c3n2)cc1`, for which the IC50 in test [1] is 330 to 332 nM; with A2780 it was 2710 nM; in the test on MCF7 it was 18 nM; in test [2], above 10000 nM.

A word on the IC50: it is the concentration needed to halve the response being measured.
